Read-outs that look alike come from different tables or passages of the source.
Columns and labels:
[1] = in vivo
Experimental: The pharmacokinetic studies were carried out in healthy male Wistar rats (250–300 g). The animals were fasted overnight before dosing with free access to water. The animals were acclimatized to laboratory conditions over the week before experiments and fed with standard rat diet, under controlled conditions of a 12 : 12 h light : dark cycle, with a temperature of 22 ± 3°C and relative humidity of 50 ± 5% RH. The experimental protocol was approved by the Institutional Animal Ethical Committee (AACP/IAEC/Jun-2012-02).
Eighteen rats were randomly separated into three groups (six animals in each group).
At regular time intervals 0, 1, 2, 4, 6, 8, 12, and every 24 h, for 10 days, samples of blood were withdrawn (100 μL) from the retroorbital plexus by microcapillary technique under light ether anesthesia into heparinized microcentrifuge tubes (50 units heparin/mL of blood).
The supernatant was decanted into a China dish and evaporated to dryness at room temperature. This was further reconstituted with 100 μL of mobile phase and vortexed for 30 s and 20 μL was injected into an HPLC system. Emtricitabine was detected at a wavelength of 280 nm. The proficiency of nanoparticulate formulations was appraised by administering pure drug orally and measuring the blood levels at 0, 0.25, 0.5, 1.5, 2, 3, 4, 6, 8, 12 and 24 h.

[2] = rat plasma, n = 6
Experimental: Bench-top stability was investigated to ensure that emtricitabine was not degraded in plasma samples at room temperature for a time period to cover the sample preparation. It was measured by divulging the QC samples to ambient laboratory conditions for 10 h. Freeze-thaw stability was measured over three cycles. Because of the need for occasional delayed injection of extraction samples, the stability of reconstituted samples was assessed at ambient temperature for 24 h. The freezer storage stability of emtricitabine in rat plasma at −20°C was evaluated by assaying QC samples at the beginning and one week later. All stability QC samples were analyzed in six replicates.

[3] = male Wistar rats, oral, 15 mg/kg/rat, n = 6, mean ± SD, listed as Free emtricitabine, 15 mg/kg
[4] = male, Wistar, rat, plasma, po, 15 mg/kg
[5] = Bench-top stability, ambient temperature (25°C) for 4 h, spiked 0.1 μg/mL
[6] = Bench-top stability, ambient temperature (25°C) for 4 h, spiked 0.8 μg/mL
[7] = Bench-top stability, ambient temperature (25°C) for 4 h, spiked 2.0 μg/mL
[8] = Freeze-thaw stability, after three freeze-thaw cycles, spiked 0.1 μg/mL
[9] = Freeze-thaw stability, after three freeze-thaw cycles, spiked 0.8 μg/mL
[10] = Freeze-thaw stability, after three freeze-thaw cycles, spiked 2.0 μg/mL
[11] = One-week stability, stored at −16°C, spiked 0.1 μg/mL
[12] = One-week stability, stored at −16°C, spiked 0.8 μg/mL
[13] = One-week stability, stored at −16°C, spiked 2.0 μg/mL

Compound: Nc1nc(=O)n([C@@H]2CS[C@H](CO)O2)cc1F [Emtricitabine, 5-fluoro-1-(2R, 5S)-[2-(hydroxymethyl)-1,3-oxathiolan-5-yl]cytosine]
- AUMC0–∞ ([1]; male Wistar rats, oral, 15 mg/kg/rat, n = 6, mean ± SD): 178.32 ± 15.095 µg/mL∗h
- AUC0–∞ [1, 3]: 14.835 ± 0.450 µg/mL∗h
- t max [1, 3]: 2.0 ± 0.006 h
- Cmax [1, 4]: 1.7 ± 0.017 µg/mL
- MRT [1, 4]: 12 ± 0.67 h
- half-life [1, 4]: 9.37 ± 0.58 h
- k el [1, 4]: 2.06e-05 s⁻¹
- AUC(0-inf) ([1]; male, Wistar, rat, plasma, po, 15 mg/kg, AUC0–∞, male Wistar rats, 15 mg/kg/rat, n = 6, mean ± SD): 14.8 µg·h/mL
- t max ([1]; male, Wistar, rat, plasma, po, 15 mg/kg, t max, male Wistar rats, 15 mg/kg/rat, n = 6, mean ± SD): ≤ 2 h
- AUC(0-inf) ([1]; male, Wistar, rat, plasma, po, 15 mg/kg/rat, AUC0−∞ (Figure 6), Wistar rats, mean ± SEM): 14.8 ± 0.184 µg·h/mL
- Accuracy [2, 5]: 96.0%
- Mean determined concentration [2, 5]: 0.096 µg/mL
- Accuracy [2, 6]: 97.87%
- Mean determined concentration [2, 6]: 0.783 µg/mL
- Accuracy [2, 7]: 97.20%
- Mean determined concentration [2, 7]: 1.944 µg/mL
- Accuracy [2, 8]: 99.00%
- Mean determined concentration [2, 8]: 0.099 µg/mL
- Accuracy [2, 9]: 99.37%
- Mean determined concentration [2, 9]: 0.795 µg/mL
- Accuracy [2, 10]: 99.75%
- Mean determined concentration [2, 10]: 1.995 µg/mL
- Accuracy [2, 11]: 93.00%
- Mean determined concentration [2, 11]: 0.093 µg/mL
- Accuracy [2, 12]: 93.25%
- Mean determined concentration [2, 12]: 0.746 µg/mL
- Accuracy [2, 13]: 95.55%
- Mean determined concentration [2, 13]: 1.911 µg/mL
